Laboratory results as given in publication PMC4686899, “Peptides derived from CXCL8 based on in silico analysis inhibit CXCL8 interactions with its receptor CXCR1” (Scientific Reports, 2015).
Ends that are not written are not given here.

Columns and labels:
[1] = system: THP-1 cell adhesion to CXCL8-treated HMEC-1; format: cell-based, human; details: 25 ng/ml CXCL8, 18 h, no peptide, vs control
Experimental: Human micro-vascular endothelial cell-1 (HMEC-1, from American Type Culture Collection Manassas, USA) was maintained in MCDB 131 medium (Sigma, USA) with L-glutamine and fetal bovine serum (Sigma, USA) to a final concentration of 15%. The medium was supplemented with 500 units/ml penicillin (Biowest, USA), 500 μg/ml streptomycin (Biowest, USA), 10 ng/ml Epidermal Growth Factor (ProSpec, USA) and 1 µg/ml hydrocortisone (Sigma, USA). The THP-1 cells were maintained in the RPMI-1640 medium (Invitrogen, USA) with 10% FBS. For the assay of THP-1 cell adhesion to HMEC-1 monolayers, confluent HMEC-1 cell monolayers cultured on 24-well plates were pretreated with peptides for one hour and activated with 25 ng/ml LPS (Sigma, USA) or full length CXCL8 (ProSpec, USA) for 18 hours. THP-1 monocytes were suspended in RPMI 1640 and prelabeled with 5 mM Calcein-AM (Invitrogen, USA) for 30 minutes. Before the THP-1 cells were added to HMEC-1, the monolayers were washed twice to remove LPS or CXCL8. Fluorescence labeled monocytes (3 × 10^5 cells/well) were then added to HMEC-1 and incubated for 30 minutes at 37 °C. […] The images of adhered THP-1 cells were photographed (five images per well) under fluorescent microscopy and the number of attached monocytes was counted with the software AlphaImager 2200 (Alpha Innotech, USA).

[2] = system: THP-1 transmigration across CXCL8-stimulated HMEC-1; test: CXCL8-induced monocyte transendothelial migration across HMEC-1 (Transwell); format: cell-based, human; details: 25 ng/ml CXCL8, 18 h, vs absence of CXCL8
Experimental: (§1) Human micro-vascular endothelial cell-1 (HMEC-1, from American Type Culture Collection Manassas, USA) was maintained in MCDB 131 medium (Sigma, USA) with L-glutamine and fetal bovine serum (Sigma, USA) to a final concentration of 15%. The medium was supplemented with 500 units/ml penicillin (Biowest, USA), 500 μg/ml streptomycin (Biowest, USA), 10 ng/ml Epidermal Growth Factor (ProSpec, USA) and 1 µg/ml hydrocortisone (Sigma, USA). The THP-1 cells were maintained in the RPMI-1640 medium (Invitrogen, USA) with 10% FBS.
Migration of THP-1 cells across HMEC-1 was performed in a Transwell system (BD Bioscences, USA). Briefly, HMEC-1 cells cultured on transwell (polycarbonate membranes with 8 μm pore sizes) filters were pretreated with peptides for one hour and then stimulated with 25 ng/ml LPS or CXCL8 for 18 hours. THP-1 monocytes (2 × 10^5 cells/well) were added to the upper chamber of transwell inserts containing 50 μl RPMI 1640. LPS (25 ng/ml), CXCL8 peptide (p_wt14) (0.5 and 5 mM), or both combinations were added to the lower chamber to initiate transmigration. After four hours of incubation at 37 °C under 5% CO2, cells that had transmigrated to the lower chamber were harvested and counted using microscopy. All experiments were measured in at least three independent studies, and the data represent the number of transmigrated THP-1 cells.

HMEC-1 = test: Cell viability assay (WST-1); format: cell-based, human; details: various concentrations of p_wt14, 24 and 48 h, WST-1, vs control
Experimental: as §1
To evaluate if the peptide p_wt14 is toxic to the HMEC-1 under resting conditions, 2 × 10^4 cells were dispensed into each well of 96-well micro-plates and incubated for 2 hours for adhesion. After that, the medium containing peptide p_wt14 at various concentrations was added. After 24 and 48 hours of incubation, cells were washed with Hank’s balanced salt solution and the viabilities of HMEC-1were determined by WST-1 assay kit (Roche, USA). Each experiment was performed in quadruplicate and repeated at least three times.

[3] = target: CXCR1p receptor-derived peptide (Homo sapiens), P25024; test: SPR; details: modification not given
Chain of CXCR1p receptor-derived peptide (Homo sapiens), P25024 (P25024 9-29): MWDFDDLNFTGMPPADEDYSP

In the case of “CXCL8: chemokine CXCL8 (also known as interleukin-8 or IL-8), full length”, the “effect of CXCL8 on monocyte adhesion to HMEC-1 (in words)” value [1] is reported as “significant increase in the number of adhered monocytes” and the “effect of CXCL8 on monocyte transmigration (in words)” value [2] is reported as “considerable increase in monocyte transmigration”.

With QCIKTYSKPFHPKF [p_wt14] the “HMEC-1 cell viability (in words)” value (HMEC-1) was “no significant cell viability difference”.

IKTYSKPFHPKFIK [CXCL8 peptide p_wt14 14-residue peptide, P10145] showed a Kd [3] of 252 µM.
